These are literature values, as cited in patent publication US20070203190A1, “Hydroxylamines and derivatives for the inhibition of complement activation” (priority 2006, published 2007).

One series has as its system complement activation. Conditions: in vivo animal models.

Take “sCR1: a recombinant form of complement receptor 1 known as soluble complement receptor 1”: the “suppression of complement activation” value with complement activation is listed as “suppress complement activation”.

B1: CD59: blocks assembly of the MAC; proposed as a potential therapeutic agent (protein, UniProt P13987 26-102, looked up)
CD59 glycoprotein: LQCYNCPNPTADCKTAVNCSSDFDACLITKAGLQVYNKCWKFEHCNFNDVTTRLRENELTYYCCKKDLCNFNEQLEN
B1: the activity in vitro entry with MAC is on record as “limited activity”.
